Literature values as cited in patent US20230381197A1, “COMPOSITIONS FOR NON-SURGICAL PREVENTION OF BOAR TAINT AND […]” (Insigna Inc., priority 2022, published 2023).

System: Sertoli cells
Conditions: young male pigs

SMILES | duration of Sertoli cell proliferation and testis size
C[C@]12CC[C@@H]3c4ccc(O)cc4C[C@@H](CCCCCCCCC[S+]([O-])CCCC(F)(F)C(F)(F)F)[C@H]3[C@@H]1CC[C@@H]2O (some centres unmarked) [ICI 182,780] | highly significant increase
N#Cc1ccc(C(c2ccc(C#N)cc2)n2cncn2)cc1 [Letrozole] | highly significant increase
